Test: Reduction of viral RNA and protein in Huh7 cells containing HCV sub-genomic replicon

Compound: CCC[C@]1(CC(=O)O)OCCc2c1sc1c(C)cc(F)c(C#N)c21 [((R)-5-cyano-6-fluoro-8-methyl-1-propyl-3,4-dihydro-1H-benzo[4,5]thieno[2,3-c]pyran-1-yl)-acetic acid]
- EC50: 3.2 µM

Source: BindingDB's records for doi:10.1016/j.bmcl.2005.08.114 (Wyeth Research, 2005)
